Reference: paper PMC6695811, “Protein Phosphatase Ppz1 Is Not Regulated by a Hal3-Like Protein in Plant Pathogen Ustilago maydis” (International Journal of Molecular Sciences, 2019)

Legend:
Assay in all cases: phosphatase activity assay
Assay type in all cases: biochemical
Conditions in all cases: 10 mM pNPP
[1] = biological target: T1, UmPpz1 (Mycosarcoma maydis, UniProt A0A0D1DW62)
T1 construct: gene UMAG_04827; full-length ORF, 497 residues, from FB1 genomic DNA in pGEX-6p-1, E. coli BL21(DE3) RIL, GST tag cut by PreScission
T1 sequence (A0A0D1DW62 1-497): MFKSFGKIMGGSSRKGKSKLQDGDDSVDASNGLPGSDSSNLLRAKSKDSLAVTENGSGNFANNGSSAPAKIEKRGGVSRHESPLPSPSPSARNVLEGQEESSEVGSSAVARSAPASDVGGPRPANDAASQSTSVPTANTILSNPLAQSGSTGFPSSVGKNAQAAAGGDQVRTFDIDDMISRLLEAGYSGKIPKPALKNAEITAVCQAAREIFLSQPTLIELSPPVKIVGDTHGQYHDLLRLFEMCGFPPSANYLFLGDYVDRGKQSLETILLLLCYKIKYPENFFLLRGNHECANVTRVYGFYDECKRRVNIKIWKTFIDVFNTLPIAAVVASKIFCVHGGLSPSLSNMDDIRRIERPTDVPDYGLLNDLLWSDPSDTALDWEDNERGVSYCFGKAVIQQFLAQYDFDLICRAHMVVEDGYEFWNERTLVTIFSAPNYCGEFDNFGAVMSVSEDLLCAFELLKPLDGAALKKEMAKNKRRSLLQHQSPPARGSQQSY

[2] = biological target: T2, ScPpz1 (Saccharomyces cerevisiae, UniProt P26570)
T2 construct: gene PPZ1; full length, 692 residues, GST fusion from E. coli BL21(DE3) RIL, GST tag cut by PreScission
T2 sequence (P26570 1-692): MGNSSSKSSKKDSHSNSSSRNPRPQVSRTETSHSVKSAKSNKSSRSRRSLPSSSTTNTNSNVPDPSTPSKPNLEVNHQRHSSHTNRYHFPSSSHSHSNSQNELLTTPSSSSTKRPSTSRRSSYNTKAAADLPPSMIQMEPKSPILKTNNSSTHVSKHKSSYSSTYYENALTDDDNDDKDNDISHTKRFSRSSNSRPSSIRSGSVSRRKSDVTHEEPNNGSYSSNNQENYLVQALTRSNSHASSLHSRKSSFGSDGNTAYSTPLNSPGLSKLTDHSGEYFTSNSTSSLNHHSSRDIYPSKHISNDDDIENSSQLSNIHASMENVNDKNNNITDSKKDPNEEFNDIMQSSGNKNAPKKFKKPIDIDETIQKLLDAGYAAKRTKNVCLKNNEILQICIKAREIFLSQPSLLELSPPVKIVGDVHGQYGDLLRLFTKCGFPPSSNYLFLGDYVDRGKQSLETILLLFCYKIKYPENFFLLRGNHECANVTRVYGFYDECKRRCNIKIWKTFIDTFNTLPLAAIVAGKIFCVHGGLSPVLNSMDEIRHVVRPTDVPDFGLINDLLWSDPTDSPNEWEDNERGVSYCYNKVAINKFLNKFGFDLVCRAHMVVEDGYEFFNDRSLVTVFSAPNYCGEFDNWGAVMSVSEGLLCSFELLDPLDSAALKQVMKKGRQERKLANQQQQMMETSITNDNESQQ

[3] = biological target: T3, UmPpz1-s (Mycosarcoma maydis, UniProt A0A0D1DW62)
T3 construct: gene UMAG_04827; short version lacking residues 1-8 (starts at Met9), pGEX-6p-1, E. coli BL21(DE3) RIL, GST tag cut by PreScission
T3 sequence (A0A0D1DW62 9-497): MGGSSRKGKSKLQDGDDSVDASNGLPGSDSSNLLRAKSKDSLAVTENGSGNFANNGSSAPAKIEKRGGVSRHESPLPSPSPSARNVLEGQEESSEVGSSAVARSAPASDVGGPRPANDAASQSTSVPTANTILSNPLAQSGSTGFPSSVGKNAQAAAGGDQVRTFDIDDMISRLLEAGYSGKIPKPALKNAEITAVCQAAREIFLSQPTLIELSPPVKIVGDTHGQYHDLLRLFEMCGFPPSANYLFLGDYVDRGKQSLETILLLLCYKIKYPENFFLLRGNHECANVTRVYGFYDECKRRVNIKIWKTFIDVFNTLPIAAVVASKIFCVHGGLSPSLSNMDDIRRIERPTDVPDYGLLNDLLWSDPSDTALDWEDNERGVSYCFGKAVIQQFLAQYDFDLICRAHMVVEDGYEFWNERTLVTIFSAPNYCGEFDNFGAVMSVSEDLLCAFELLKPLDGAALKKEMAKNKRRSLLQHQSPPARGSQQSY

## O=[N+]([O-])c1ccc(OP(=O)(O)O)cc1 [p-nitrophenylphosphate]
[1]
  phosphatase activity assay: showed phosphatase activity against the synthetic substrate pNPP
[2]
  phosphatase activity assay: substrate pNPP which was similar to that observed for ScPpz1
[3]
  phosphatase activity assay: The recombinant enzyme (as well as UmPpz1-s) showed phosphatase activity against the synthetic substrate pNPP
